# Assay results reported in patent US20240252456A1, “ORAL COMPOSITION, SKIN COSMETIC AND HAIR COSMETIC” (MARUZEN PHARMACEUTICALS CO., LTD., priority 2021, published 2024).
# How the values were obtained:
# [1] = target: T1, hyaluronidase (Type IV-S) (Bos taurus, UniProt Q2YDK3); test: Hyaluronidase activity inhibitory action test; assay type: biochemical, bovine; conditions: read-out: Hyaluronidase activity inhibition rate; for inhibition at 250 µM: 250 μmol/L; for inhibition at 1000 µM: 1000 μmol/L
# T1 construct: purchased SIGMA Type IV-S; host or cells: bovine testes
# T1 sequence (Q2YDK3 36-553): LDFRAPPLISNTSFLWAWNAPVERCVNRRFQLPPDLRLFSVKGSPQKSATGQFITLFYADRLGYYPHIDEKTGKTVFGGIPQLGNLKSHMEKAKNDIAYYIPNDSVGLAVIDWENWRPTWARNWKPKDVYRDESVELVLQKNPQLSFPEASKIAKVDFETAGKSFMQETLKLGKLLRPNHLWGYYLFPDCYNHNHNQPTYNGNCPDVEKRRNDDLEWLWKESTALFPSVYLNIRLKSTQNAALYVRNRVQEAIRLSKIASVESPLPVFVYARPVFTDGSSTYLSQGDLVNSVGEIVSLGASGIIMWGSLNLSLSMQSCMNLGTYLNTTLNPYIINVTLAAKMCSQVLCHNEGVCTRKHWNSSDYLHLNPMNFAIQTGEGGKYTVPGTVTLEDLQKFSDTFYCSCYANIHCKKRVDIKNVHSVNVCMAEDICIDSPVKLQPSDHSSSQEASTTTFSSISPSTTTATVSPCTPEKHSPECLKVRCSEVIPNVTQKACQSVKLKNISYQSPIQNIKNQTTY
# Procedure: To 0.2 mL of each of test samples (Samples 1 to 3, see Table 27 below for final concentrations) dissolved in 0.1 mol/L acetate buffer solution (pH 3.5), 0.1 mL of hyaluronidase solution (available from SIGMA, Type IV-S, from bovine tests, 400 NF units/mL) was added, and the mixture was statically placed at 37° C. for 20 minutes. Furthermore, 0.2 mL of 2.5 mmol/L calcium chloride was added as an activator, and the mixture was statically placed at 37° C. for 20 minutes. To this was added 0.5 mL of 0.8 mg/mL sodium hyaluronate solution (from rooster comb), and the mixture was reacted at 37° C. for 40 minutes. After that, 0.2 mL of 0.4 mol/L sodium hydroxide was added to stop the reaction, it was cooled, and then 0.2 mL of boric acid solution was added to each reaction solution, which was boiled for 3 minutes. After cooling on ice, 6 mL of p-DABA reagent was added and reacted at 37° C. for 20 minutes. After that, the absorbance at a wavelength of 585 nm was measured.
# In addition, as a blank, the same operation and absorbance measurement were performed in the case in which no enzyme solution was added. Furthermore, as a control, the same measurement was performed in the case in which distilled water was added without adding the sample solution. From the obtained results, the hyaluronidase activity inhibition rate (%) was calculated using the following equation.
# Terms in the equation represent the following respective ones. • A: Absorbance at wavelength 585 nm with test sample addition and with enzyme addition • B: Absorbance at wavelength 585 nm with test sample addition and without enzyme addition • C: Absorbance at wavelength 585 nm without sample addition and with enzyme addition • D: Absorbance at wavelength 585 nm without sample addition and without enzyme addition
# [2] = tested on: Normal human liver cells (hepatocytes); test: Glutathione production promotive action test (hepatocytes); assay type: cell-based; conditions: 24 hours
# Procedure: (§1) Normal human liver cells (hepatocytes) were cultured using Dulbecco's modified Eagle's medium (DMEM) containing 10% FBS, and then the cells were collected by a trypsin treatment. The collected cells were diluted with DMEM containing 10% FBS to a cell density of 10×10^4 cells/mL, then seeded with 200 μL per well in a 48-well plate, and cultured overnight.
# After culturing, the medium was removed, 200 μL of each of test samples (Samples 1 to 3, see Table 30 below for final concentrations) dissolved in DMEM containing 1% FBS was added to each well, and culturing was further performed for 24 hours. As a control, culturing was performed in the same manner using DMEM containing 1% FBS to which no sample was added. After the culturing was completed, the medium was removed from each well, and the cells were washed with 400 μL of PBS(−) and then lysed using 150 μL of M-PER (available from PIERCE).
# Quantitative determination of total glutathione was performed using 100 μL of the lysed cells. That is, 100 μL of lysed cell extract, 50 μL of 0.1 mol/L phosphate buffer solution, 25 μL of 2 mmol/L NADPH, and 25 μL of 3.2 unit/mL glutathione reductase were added to a 96-well plate and heated at 37° C. for 10 minutes, then 25 μL of 10 mmol/L 5,5′-dithiobis(2-nitrobenzoic acid) was added, and the absorbance at a wavelength of 412 nm was measured until 5 minutes later to determine ΔOD/min. The total glutathione concentration was calculated based on a calibration curve created using oxidized glutathione (available from FUJIFILM Wako Pure Chemical Corporation). After correcting the obtained value to the glutathione value per total protein amount, the glutathione production promotion rate (%) was calculated based on the following equation.
# Terms in the equation represent the following respective ones. • A: Glutathione amount per total protein amount without sample addition • B: Glutathione amount per total protein amount with test sample addition
# [3] = tested on: Normal human liver cells (hepatocytes); test: ATP production promotive action test in hepatocytes; assay type: cell-based; conditions: 2 hours
# Procedure: as §1, with “2.0×10^5” for “10×10^4”, “100” for “200”, “96-well” for “48-well”
# After the culturing was completed, the medium was removed, 100 μL of each of test samples (Samples 1 to 3, see Table 31 below for final concentrations) dissolved in DMEM containing 10% FBS was added to each well, and culturing was performed for 2 hours. As a control, culturing was performed in the same manner using DMEM containing 10% FBS to which no sample was added.
# The ATP production promotive action was evaluated by measuring the amount of ATP in cells using the firefly luciferase luminescence method. That is, after culturing for 2 hours, 100 μL of an ATP measurement reagent (available from Toyo B-Net Co., Ltd., trade name “‘Cellular’ ATP measurement reagent”) was added to each well, and chemiluminescence reaction using luciferase was performed. After the reaction, the amount of chemiluminescence proportional to the amount of intracellular ATP was measured using a chemiluminescence measurement device (available from Thermo Fisher Scientific, product name: Varioskan LUX multimode microplate reader). From the obtained results, the ATP production promotion rate (%) was calculated using the following equation.
# Terms in the equation represent the following respective ones. • A: Chemiluminescence amount with test sample addition • B: Chemiluminescence amount without sample addition
SMILES,inhibition at 250 µM [1] [%],inhibition at 1000 µM [1] [%],Glutathione production promotion rate ([2]; 31.2 μmol/L) [%],Glutathione production promotion rate ([2]; 125 μmol/L) [%],Glutathione production promotion rate ([2]; 500 μmol/L) [%],ATP production promotion rate ([3]; 250 μmol/L) [%],ATP production promotion rate ([3]; 500 μmol/L) [%],ATP production promotion rate ([3]; 1000 μmol/L) [%],inhibition at 62.5 µM ([1]; 62.5 μmol/L) [%]
"O=C(O)CCc1ccc(O)c(O)c1 [Sample 1, 3,4-Dihydroxyhydrocinnamic acid]",4.9,19.9,123.9,124.8,113.4,128.4,166.8,168.9,
"O=C(O)CCc1ccc(O)cc1 [Sample 2, 3-(4-Hydroxyphenyl)propionic acid]",,15.8,119.2,118.1,,141.9,159.1,165.1,
"O=C(O)CCc1ccccc1 [Sample 3, 3-phenylpropionic acid]",20.2,41.1,133.9,124.6,119.2,128.0,136.5,156.1,16.5
